Legend:
[1] = refractive index (Na D-line) (dimensionless); xn = mol fraction of the nth substance listed; conditions: 101 kPa, Liquid, Standard Abbe refractometry
[2] = xn = mol fraction of the nth substance listed; conditions: 101 kPa, Liquid

CC(=O)OCCC(C)C [3-methylbutyl ethanoate] + CCc1ccccc1
Conditions	mass density, [2] [kg/m3]	refractive index, [1]	viscosity, [2] [mPa·s]
303.15 K, x1 = 0.0851	856.9	1.4802	0.597
303.15 K, x1 = 0.1684	858	1.4701	0.605
303.15 K, x1 = 0.2613	858.4	1.4593	0.615
303.15 K, x1 = 0.3719	859	1.4471	0.629
303.15 K, x1 = 0.4584	859.6	1.4376	0.639
303.15 K, x1 = 0.538	860.1	1.4291	0.649
303.15 K, x1 = 0.6532	861.1	1.4177	0.666
303.15 K, x1 = 0.7513	861.6	1.4112	0.681
303.15 K, x1 = 0.8475	862	1.4041	0.703
303.15 K, x1 = 0.9401	862.3	1.3983	0.726
313.15 K, x1 = 0.0851	848.8	1.4781	0.533
313.15 K, x1 = 0.1684	849.1	1.4676	0.541
313.15 K, x1 = 0.2613	849.7	1.4565	0.549
313.15 K, x1 = 0.3719	850.3	1.4425	0.559
313.15 K, x1 = 0.4584	850.9	1.4342	0.567
313.15 K, x1 = 0.538	851.3	1.4276	0.575
313.15 K, x1 = 0.6532	851.6	1.4168	0.588
313.15 K, x1 = 0.7513	851.8	1.4099	0.6
313.15 K, x1 = 0.8475	852.1	1.4035	0.619
313.15 K, x1 = 0.9401	852.3	1.3965	0.638

COC(=O)c1ccccc1 [methyl benzoate] + CCc1ccccc1
Conditions	mass density, [2] [kg/m3]	refractive index, [1]	viscosity, [2] [mPa·s]
303.15 K, x1 = 0.1033	877.9	1.4911	0.656
303.15 K, x1 = 0.1927	898.9	1.4933	0.701
303.15 K, x1 = 0.2952	921.6	1.4945	0.784
303.15 K, x1 = 0.3974	943.6	1.4958	0.857
303.15 K, x1 = 0.4947	963.3	1.4968	0.947
303.15 K, x1 = 0.5866	982.3	1.4978	1.043
303.15 K, x1 = 0.6963	1000.3	1.5022	1.17
303.15 K, x1 = 0.7953	1023.3	1.5054	1.308
303.15 K, x1 = 0.9016	1053.3	1.509	1.464
303.15 K, x1 = 0.951	1056.8	1.5092	1.566
313.15 K, x1 = 0.1033	870.2	1.4888	0.583
313.15 K, x1 = 0.1927	890.3	1.49	0.641
313.15 K, x1 = 0.2952	912.7	1.4918	0.687
313.15 K, x1 = 0.3974	935	1.4928	0.75
313.15 K, x1 = 0.4947	954.1	1.4937	0.824
313.15 K, x1 = 0.5866	973.7	1.4955	0.925
313.15 K, x1 = 0.6963	992	1.4985	1.048
313.15 K, x1 = 0.7953	1010.3	1.5014	1.165
313.15 K, x1 = 0.9016	1043.3	1.5044	1.287
313.15 K, x1 = 0.951	1047.4	1.5064	1.346

— the NIST ThermoML archive (doi:10.1021/je800325d)
